Measurements reported in the NIST ThermoML archive (doi:10.1016/j.jct.2005.02.004).

Assay: mn = molality of the nth substance listed, in mol/kg
Details: Liquid, Vibrating tube method

[Br-].[Br-].[Zn+2] [zinc bromide] + CO
Details | mass density [kg/m3]
298.27 K, 175 kPa, m1 = 0.7158 | 902.32
298.27 K, 206 kPa, m1 = 0.3785 | 853.39
298.27 K, 206 kPa, m1 = 1.951 | 1072.66
298.27 K, 4983 kPa, m1 = 1.951 | 1077.46
298.27 K, 4990 kPa, m1 = 0.3785 | 858.17
298.27 K, 4998 kPa, m1 = 0.7158 | 907.05
298.27 K, 9995 kPa, m1 = 1.951 | 1082.31
298.27 K, 10009 kPa, m1 = 0.7158 | 911.75
298.27 K, 10013 kPa, m1 = 0.3785 | 862.94
298.27 K, 14985 kPa, m1 = 0.7158 | 916.21
298.27 K, 14995 kPa, m1 = 0.3785 | 867.44
298.27 K, 15001 kPa, m1 = 1.951 | 1087.02
298.27 K, 19983 kPa, m1 = 1.951 | 1091.45
298.27 K, 19984 kPa, m1 = 0.3785 | 871.75
298.27 K, 19989 kPa, m1 = 0.7158 | 920.51
298.27 K, 24990 kPa, m1 = 1.951 | 1095.81
298.27 K, 25018 kPa, m1 = 0.3785 | 875.78
298.27 K, 25019 kPa, m1 = 0.7158 | 924.66
298.27 K, 29988 kPa, m1 = 0.3785 | 879.71
298.27 K, 29996 kPa, m1 = 1.951 | 1100.02
298.27 K, 34982 kPa, m1 = 0.3785 | 883.51
298.27 K, 34985 kPa, m1 = 0.7158 | 932.44
298.27 K, 34998 kPa, m1 = 1.951 | 1104.11
298.27 K, 35000 kPa, m1 = 0.7158 | 932.43
298.27 K, 39992 kPa, m1 = 0.7158 | 936.16
298.27 K, 40008 kPa, m1 = 0.3785 | 887.18
298.27 K, 40010 kPa, m1 = 1.951 | 1108.09
298.28 K, 200 kPa, m1 = 0.05772 | 797.74
298.28 K, 4999 kPa, m1 = 0.05772 | 802.42
298.28 K, 9984 kPa, m1 = 0.05772 | 807.04
298.28 K, 14988 kPa, m1 = 0.05772 | 811.39
298.28 K, 19994 kPa, m1 = 0.05772 | 815.58
298.28 K, 24988 kPa, m1 = 0.05772 | 819.58
298.28 K, 29998 kPa, m1 = 0.05772 | 823.42
298.28 K, 34981 kPa, m1 = 0.05772 | 827.09
298.28 K, 40008 kPa, m1 = 0.05772 | 830.66
323.22 K, 212 kPa, m1 = 0.7158 | 876.52
323.22 K, 228 kPa, m1 = 0.3785 | 828.32
323.22 K, 230 kPa, m1 = 0.05772 | 773.97
323.22 K, 245 kPa, m1 = 1.951 | 1042.34
323.22 K, 4983 kPa, m1 = 0.3785 | 833.75
323.22 K, 4994 kPa, m1 = 0.05772 | 779.33
323.22 K, 5004 kPa, m1 = 1.951 | 1047.72
323.22 K, 5010 kPa, m1 = 0.7158 | 881.93
323.22 K, 9982 kPa, m1 = 1.951 | 1053.09
323.22 K, 9993 kPa, m1 = 0.3785 | 839.12
323.22 K, 9999 kPa, m1 = 0.7158 | 887.26
323.22 K, 10015 kPa, m1 = 0.05772 | 784.65
323.22 K, 14987 kPa, m1 = 1.951 | 1058.26
323.22 K, 14997 kPa, m1 = 0.05772 | 789.6
323.22 K, 14997 kPa, m1 = 0.3785 | 844.21
323.22 K, 15018 kPa, m1 = 0.7158 | 892.34
323.22 K, 19990 kPa, m1 = 0.3785 | 849.04
323.22 K, 19994 kPa, m1 = 0.7158 | 897.14
323.22 K, 20007 kPa, m1 = 0.05772 | 794.31
323.22 K, 20009 kPa, m1 = 1.951 | 1063.24
323.22 K, 24981 kPa, m1 = 0.7158 | 901.73
323.22 K, 24985 kPa, m1 = 0.05772 | 798.77
323.22 K, 24994 kPa, m1 = 0.3785 | 853.6
323.22 K, 24998 kPa, m1 = 1.951 | 1068
323.22 K, 29987 kPa, m1 = 0.7158 | 906.15
323.22 K, 29997 kPa, m1 = 1.951 | 1072.61
323.22 K, 30012 kPa, m1 = 0.05772 | 803.09
323.22 K, 30016 kPa, m1 = 0.3785 | 857.92
323.22 K, 34994 kPa, m1 = 0.7158 | 910.38
323.22 K, 34996 kPa, m1 = 0.05772 | 807.14
323.22 K, 34997 kPa, m1 = 0.3785 | 862.1
323.22 K, 35003 kPa, m1 = 1.951 | 1077.08
323.22 K, 39988 kPa, m1 = 0.3785 | 866.11
323.22 K, 39997 kPa, m1 = 0.7158 | 914.47
323.22 K, 39998 kPa, m1 = 0.05772 | 811.05
323.22 K, 40001 kPa, m1 = 1.951 | 1081.4
348.23 K, 311 kPa, m1 = 0.3785 | 802.57
348.23 K, 316 kPa, m1 = 0.7158 | 850.07
348.23 K, 4989 kPa, m1 = 0.7158 | 856.15
348.23 K, 5006 kPa, m1 = 0.3785 | 808.74
348.23 K, 9999 kPa, m1 = 0.3785 | 814.86
348.23 K, 10009 kPa, m1 = 0.7158 | 862.27
348.23 K, 14998 kPa, m1 = 0.7158 | 868
348.23 K, 15007 kPa, m1 = 0.3785 | 820.6
348.23 K, 19987 kPa, m1 = 0.3785 | 825.97
348.23 K, 19998 kPa, m1 = 0.7158 | 873.4
348.23 K, 24998 kPa, m1 = 0.3785 | 831.08
348.23 K, 25006 kPa, m1 = 0.7158 | 878.54
348.23 K, 29987 kPa, m1 = 0.7158 | 883.42
348.23 K, 29988 kPa, m1 = 0.3785 | 835.92
348.23 K, 34986 kPa, m1 = 0.7158 | 888.06
348.23 K, 35004 kPa, m1 = 0.3785 | 840.55
348.23 K, 40002 kPa, m1 = 0.7158 | 892.55
348.23 K, 40007 kPa, m1 = 0.3785 | 844.98
